≈ marks a conversion by molar mass, not a printed value. Where “and” joins values, the source holds several entries; their conditions need not be identical. Equal entries are not always repeated. Where two headings read alike, the source gives them in different places.
Assays:
E. coli Juhl [1] = experiment: PD50 (mice, im); assay type: in vivo; details: Escherichia coli
Pseudomonas = experiment: Antipseudomonal activity of HPLC fractions; assay type: cell-based; details: fractions of preparative HPLC of crude BB-P661
Description: The result is shown below:

Ps. aerug. A9843 = experiment: PD50 (mice, im); assay type: in vivo; details: for ED50: Mus musculus
S. aureus Smith [2] = experiment: PD50 (mice, im); assay type: in vivo; details: Staphylococcus aureus
P. aeruginosa = experiment: MIC, serial two-fold agar dilution, Mueller-Hinton agar (third P. aeruginosa line, strain not given); assay type: cell-based; details: Pseudomonas aeruginosa
Experimental: (§1) Minimum inhibitory concentrations (MIC) of BB-P 652, BB-P 660 and BB-P 661 were determined by serial two-fold agar dilution method using Steer's apparatus on Mueller-Hinton agar plates against S. aureus (6 strains), cephalothinsensitive gram-negative (Gn-I, 13 strains), cephalothinresistant gram-negative (Gn-II, 6 strains) and Ps. aeruginosa (64 strains). The results are shown in Tables 1 and 2 along with piperacillin and carbenicillin.

E. cloacae A9656 = experiment: MIC, serial two-fold agar dilution, Mueller-Hinton agar; assay type: cell-based; details: Enterobacter cloacae
Experimental: as §1

P. aeruginosa A15150 = experiment: as above; assay type: cell-based; details: Pseudomonas aeruginosa
Experimental: as §1

P. mirabilis A9900 = experiment: as above; assay type: cell-based; details: Proteus mirabilis
Experimental: as §1

P. aeruginosa A9843 = experiment: as above; assay type: cell-based; details: Pseudomonas aeruginosa
Experimental: as §1

S. aureus BX-1633 = experiment: as above; assay type: cell-based; details: Staphylococcus aureus, BX1633
Experimental: as §1

K. pneumoniae A9977 = experiment: as above; assay type: cell-based; details: Klebsiella pneumoniae
Experimental: as §1

E. coli Juhl [3] = experiment: as above; assay type: cell-based; details: Escherichia coli
Experimental: as §1

P. vulgaris A9539 = experiment: as above; assay type: cell-based; details: Proteus vulgaris
Experimental: as §1

S. aureus Smith [4] = experiment: as above; assay type: cell-based; details: Staphylococcus aureus
Experimental: as §1

gram-positive bacteria = experiment: In vitro activity against gram-positive bacteria (summary of MIC); assay type: cell-based; details: in words
Experimental: as §1

S. aureus (6 strains) = experiment: Mean % relative activity to carbenicillin from geometric mean MIC; assay type: cell-based; details: from geometric mean of MIC
Experimental: as §1

[5] = system: Ps. aeruginosa (64 strains); experiment: as above; assay type: cell-based; details: for Mean % relative activity (carbenicillin = 100%): Ps. aeruginosa, 64 strains, from geometric mean of MIC
Experimental: as §1

[6] = system: Gram-negative (Gn-II), cephalothin-resistant, 6 strains; experiment: as above; assay type: cell-based; details: for Mean % relative activity (carbenicillin = 100%): Gram-negative (Gn-II), 6 strains, from geometric mean of MIC
Experimental: as §1

[7] = system: Gram-negative (Gn-I), cephalothin-sensitive, 13 strains; experiment: as above; assay type: cell-based; details: for Mean % relative activity (carbenicillin = 100%): Gram-negative (Gn-I), 13 strains, from geometric mean of MIC
Experimental: as §1

gram-negative bacteria = experiment: In vitro gram-negative activity of the isomers (summary of MIC); assay type: cell-based; details: in words
Experimental: as §1

[8] = Blood Level (im, 20mg/kg); assay type: in vivo; details: for half-life / Cmax: blood; for Cmax: read-out: Blood Level peak conc.
[9] = P. aeruginosa A9843, agar dilution, Mueller-Hinton agar, read-out: MIC
[10] = E. coli Juhl, agar dilution, Mueller-Hinton agar, read-out: MIC

Structure (SMILES)	ED50 (E. coli Juhl [1])	ED50 (Ps. aerug. A9843)	ED50 (S. aureus Smith [2])	MIC (P. aeruginosa)	MIC (E. cloacae A9656)	MIC (P. aeruginosa A15150)	MIC (P. mirabilis A9900)	MIC (P. aeruginosa A9843; [9])	MIC (S. aureus BX-1633)	MIC (K. pneumoniae A9977)	MIC (E. coli Juhl [3]; [10])	MIC (P. vulgaris A9539)	MIC (S. aureus Smith [4])	activity against gram-positive bacteria, compared with each other (gram-positive bacteria)	Mean % relative activity (carbenicillin = 100%) (S. aureus (6 strains))	Mean % relative activity (carbenicillin = 100%) [5]	Mean % relative activity (carbenicillin = 100%) [6]	Mean % relative activity (carbenicillin = 100%) [7]	half-life ([8]; im, 20 mg/kg)	Cmax ([8]; im, 20 mg/kg, im)	further results
CCN1CCN(C(=O)N[C@@H](C(=O)N[C@@H]2C(=O)N3[C@@H]2SC(C)(C)[C@@H]3C(=O)O)c2ccc(O)c(O)c2)C(=O)C1=O [BB-P 661, Sodium 6-[D-α-(4-ethyl-2,3-dioxo-1-piperazinocarboxamido)-α-(3,4-dihydroxyphenyl)acetamido]penicillinate]	1.8 mg/kg	25 mg/kg	6.25 mg/kg	0.8 µg/mL	1.6 µg/mL	12.5 µg/mL	0.4 µg/mL	0.8 µg/mL	12.5 µg/mL	0.025 µg/mL	0.4 µg/mL	0.4 µg/mL	6.3 µg/mL	almost as active as each other	22%	418%	178%	3030%	28 min	4000 ng/mL	antipseudomonal activity (Pseudomonas): exhibited antipseudomonal activity; potency against gram-positive bacteria, compared with piperacillin (gram-positive bacteria): less potent than piperacillin; activity compared with piperacillin against Pseudomonas ([5]; in words): slightly less active; activity compared with piperacillin against cephalothin-resistant strains ([6]; in words): slightly less active; times more active than piperacillin against cephalothin-sensitive gram-negative organisms ([7]; versus piperacillin): about 8 times; gram-negative activity, compared among the three isomers (gram-negative bacteria): the most active of the three isomers
CCN1CCN(C(=O)N[C@@H](C(=O)N[C@@H]2C(=O)N3[C@@H]2SC(C)(C)[C@@H]3C(=O)O)c2ccccc2)C(=O)C1=O [piperacillin, reference compound]	3.3 mg/kg	45 mg/kg	0.8 mg/kg	25 µg/mL (≈ 48.3 µM)	1.6 µg/mL (≈ 3.09 µM)	3.1 µg/mL (≈ 5.99 µM)	0.8 µg/mL (≈ 1.55 µM)	6.3 µg/mL (≈ 12.2 µM)	3.1 µg/mL (≈ 5.99 µM)	0.8 µg/mL (≈ 1.55 µM)		0.4 µg/mL (≈ 0.773 µM)	0.8 µg/mL (≈ 1.55 µM)		56%	637%	224%	360%	29 min	4900 ng/mL	PD50 (Ps. aerug. A9843; listed as B-P 606): 35 mg/kg and 25 mg/kg and 40 mg/kg; MIC (E. coli Juhl [3]): 1.6 µg/mL (≈ 3.09 µM); half-life ([8]; sc, 20 mg/kg, route: sc (footnote 2)): 44 min; Blood Level peak conc. ([8]; im, listed as B-P 606, 20 mg/kg): 6200 ng/mL and 9000 ng/mL; Blood Level half life ([8]; route: sc (footnote 2), listed as B-P 606, 20 mg/kg): 30 min
CC1(C)S[C@@H]2[C@H](NC(=O)C(C(=O)O)c3ccccc3)C(=O)N2[C@H]1C(=O)O (some centres unmarked) [carbenicillin, reference compound]				> 100 µg/mL	1.6 µg/mL (≈ 4.23 µM)	25 µg/mL (≈ 66.1 µM)	0.8 µg/mL (≈ 2.11 µM)	100 µg/mL (≈ 264 µM)	3.1 µg/mL (≈ 8.19 µM)	1.6 µg/mL (≈ 4.23 µM)	3.1 µg/mL (≈ 8.19 µM)	1.6 µg/mL (≈ 4.23 µM)	0.2 µg/mL (≈ 0.529 µM)								
CCN1CCN(C(=O)N[C@H](C(=O)N[C@@H]2C(=O)N3[C@@H]2SC(C)(C)[C@@H]3C(=O)O)c2ccc(O)c(O)c2)C(=O)C1=O [BB-P 660, Sodium 6-[L-α-(4-ethyl-2,3-dioxo-1-piperazinocarboxamido)-α-3,4-dihydroxyphenylacetamido]penicillanate]	7.2 mg/kg	> 100 mg/kg	7.3 mg/kg	> 100 µg/mL	12.5 µg/mL	> 100 µg/mL	12.5 µg/mL	> 100 µg/mL	12.5 µg/mL	0.8 µg/mL	6.3 µg/mL	> 100 µg/mL	6.3 µg/mL	almost as active as each other	22%	26%	6%	200%	39 min	4000 ng/mL	potency against gram-positive bacteria, compared with piperacillin (gram-positive bacteria): less potent than piperacillin; gram-negative activity, compared among the three isomers (gram-negative bacteria): considerably decreased activity
CCN1CCN(C(=O)NC(C(=O)N[C@@H]2C(=O)N3[C@@H]2SC(C)(C)[C@@H]3C(=O)O)c2ccc(O)c(O)c2)C(=O)C1=O (mixture of isomers) [BB-P 652, Sodium 6-[DL-α-(4-ethyl-2,3-dioxo-1-piperazinocarboxamido)-α-3,4-dihydroxyphenylacetamido]penicillanate]	1.8 mg/kg	30 mg/kg	4.5 mg/kg	6.3 µg/mL	1.6 µg/mL	50 µg/mL	0.8 µg/mL		12.5 µg/mL	0.05 µg/mL	0.8 µg/mL	0.8 µg/mL	6.3 µg/mL	almost as active as each other	25%	271%	112%	1780%	32 min	8300 ng/mL	MIC (P. aeruginosa A9843; A9843): 3.1 µg/mL; potency against gram-positive bacteria, compared with piperacillin (gram-positive bacteria): less potent than piperacillin; Blood Level half life ([8]; im, 20 mg/kg): 39 min; Blood Level peak conc. ([8]; im, 20 mg/kg): 4500 ng/mL

Source: patent US4206116A, “Novel penicillins” (Bristol-Myers Company, priority 1978, dated 1980)
